“And” between values parts separate entries of the source, which are not always exact repeats. Identical values can stand only once.
Assays:
[1] = system: A. baumannii; assay: Bacterial phenotypic fingerprint profiling; assay type: cell-based, Acinetobacter baumannii; settings: random forest model
Description: Sample preparation and analysis was conducted as previously described[26] for A. baumannii, with the generated and analysed dataset consisting of three independent experiments, n = 3, as the only modification to the protocol.
For the random forest analysis data proximity analysis from 4x and 8x LOED are pooled and the number of datapoints are reduced by down sampling to be equal for all reference conditions the maximal projection of the analysis. b, In the right panel an out-of-bag validation of the random forest classification model is indicated for the reference compounds. […] The degree of frequency of matching prediction correspond to the length of the individual bar segment, where a longer segment represents a higher similarity. […] Source Data

[2] = Five-day repeat dose tolerability study; assay type: in vivo, rat; settings: for Clinical observations: male Wistar rats, n = 4; for Clinical chemistry / Coagulation / Haematology: 5 days
Description: Assessment of tolerability was based on mortality, in-life observations, body weight, food consumption and clinical pathology during the in-life phase. Moreover, gross pathology and histopathology were performed at unscheduled or scheduled euthanasia on day 6.

[3] = Rat plasma precipitation assay; settings: for Threshold concentration for precipitation: Wistar rat heparin plasma 1:1 with compound in saline/PBS, absorbance difference OD362 ≥ 0.05, n = 1
Description: Whole blood was obtained from WISTAR rats and collected in 1.2 ml heparin tubes for the preparation of heparin plasma. The tubes were then centrifuged for 5 min at 5,200g at room temperature to isolate the plasma supernatant. Test compounds were received as powder and solubilized at various concentrations in 0.9% aqueous sodium chloride solution and adjusted for pH with phosphate-buffered saline (PBS). The assay was conducted in 384-well plates. Rat plasma (10 µl) was added to 10 µl of the various compound solutions. A total of 10 µl of vehicle (0.9% aqueous sodium chloride solution, PBS) added to the plasma was used as a negative control. The absorption was measured at 362 nm. Raw data were obtained as absorbance data. The difference between the absorbance of the sample and the mean absorbance of the vehicle was calculated. The minimum effect concentration was defined as the lowest concentration giving an absorbance difference of OD362 ≥ 0.05.

[4] = system: A. baumannii; assay: MIC, broth microdilution in CAMHB supplemented with human serum, read at 100% growth inhibition; assay type: cell-based, Acinetobacter baumannii; settings: Acinetobacter baumannii, ACC00535; CAMHB + 20% HS; read-out: MIC
Description: MIC determinations were performed using the broth microdilution method and in line with CLSI guidelines M07 and M100 (refs. [37],[38]). Bacterial inocula were prepared by diluting a 0.5 McFarland suspension in CAMHB or lysogeny broth (LB) specifically for A. baylyi isolates. […] MIC values of all of the tested antibiotics were read as the lowest compound concentration inhibiting bacterial growth by naked eye or beyond which the OD600 ceased to decrease.

| Compound | Similarity towards RO7202110 [1] [%] | Clinical observations ([2]; 0.6 mg/kg slow IV once daily for 5 days) | Clinical observations ([2]; 6 mg/kg slow IV once daily for 5 days) | Clinical chemistry ([2]; rats, 0.6 mg/kg IV) | Coagulation ([2]; rats, 0.6 mg/kg IV) | Haematology ([2]; rats, 0.6 mg/kg IV) | Clinical chemistry ([2]; rats, 6 mg/kg IV) | Coagulation ([2]; rats, 6 mg/kg IV) | Haematology ([2]; rats, 6 mg/kg IV) | Decrease in lipid parameters (cholesterol, triglycerides, HDL) ([2]; rats, after intravenous administration) [%] | MTD ([2]; rats, slow IV once daily for 5 days) [mg/kg] | Threshold concentration for precipitation [3] | Threshold concentration causing precipitation ([3]; rat plasma) [µM] | MIC [4] [µg/mL] |
| --- | --- | --- | --- | --- | --- | --- | --- | --- | --- | --- | --- | --- | --- | --- |
| CN1C(=O)[C@H](CCCCN)NC(=O)[C@H](CCCN)NCc2cccnc2Sc2c(Cl)ccc(Cl)c2CNC(=O)[C@@H]1Cc1c[nH]c2ccccc12 [RO7075573] | > 70 | Slightly discolored tail after dosing | Slightly discolored tail after dosing, red extremities on D2 after dosing, prone posture, rolling gait, hypoactivity, laboured respiration, reduced food consumption – euthanized for humane reasons D2 | No relevant changes | No change | No change | Decreased HDL, triglyceride, cholesterol. Increased GLDH, AST and ALAT, CK, BUN, creatine, phosphorus, haptoglobin | Decreased prothrombin time and increased aPTT | Decrease in haemoglobin and haematocrit, increase in neutrophils | > 40 | 0.6 | 0.038 mg/mL and 0.0385 mg/mL | 52 | 0.12 |
| CN1C(=O)[C@H](CCCCN)NC(=O)[C@H](CCCN)NCc2cccnc2Sc2c(Cl)ccc(-c3ccc(C(=O)O)cc3)c2CNC(=O)[C@@H]1Cc1c[nH]c2ccccc12 [RO7202110] | – | – | – | – | – | – | – | – | – | – | – | 0.39 mg/mL | – | – |
